1 compound from patent publication US8183248B2, “Substituted pyrrolo[2,3-d]pyrimidines and compositions as protein kinase inhibitors” (IRM LLC, priority 2005, dated 2012) can be followed below.

Experiment [1] addresses T1, F317L Bcr-abl (Ba/F3 cells) (Homo sapiens, UniProt P00519, F317L).
T1 construct: expressed in transfected cells; host or cells: Ba/F3 (murine pro-B cells); the other entry of the earlier key: BCR (P11274, Breakpoint cluster region protein)
Put plainly: Proliferation of Ba/F3 cells expressing F317L Bcr-abl. The experiment is classed as cell-based. Here is the method:
32D-p210 cells are plated into 96 well TC plates at a density of 15,000 cells per well. 50 μL of two fold serial dilutions of the test compound (Cmax is 40 μM) are added to each well (STI571 is included as a positive control). After incubating the cells for 48 hours at 37° C., 5% CO2, 15 μL of MTT (Promega) is added to each well and the cells are incubated for an additional 5 hours. The optical density at 570 nm is quantified spectrophotometrically and IC50 values, the concentration of compound required for 50% inhibition, determined from a dose response curve.
Compounds of the invention are tested for their antiproliferative effect on Ba/F3 cells expressing either wild type or the mutant forms of BCR-Abl (G250E, E255V, T315I, F317L, M351T) that confers resistance or diminished sensitivity to STI571. The antiproliferative effect of these compounds on the mutant-BCR-Abl expressing cells and on the non transformed cells were tested at 10, 3.3, 1.1 and 0.37 μM as described above (in media lacking IL3). The IC50 values of the compounds lacking toxicity on the untransformed cells were determined from the dose response curves obtained as describe above.

The target of the next experiment is T2, BTK(h) (Homo sapiens, UniProt Q06187).
T2 construct: purchased Upstate
Put plainly: Upstate KinaseProfiler radio-enzymatic filter binding assay. It counts as biochemical. The conditions noted are these: read-out: percentage inhibition BTK(h). Here is the method: (§1) Compounds of the invention are assessed for their ability to inhibit individual members of the kinase panel. The compounds are tested in duplicates at a final concentration of 10 μM following this generic protocol. Note that the kinase buffer composition and the substrates vary for the different kinases included in the “Upstate KinaseProfiler™” panel. Kinase buffer (2.5 μL, 10×—containing MnCl2 when required), active kinase (0.001-0.01 Units; 2.5 μL), specific or Poly(Glu4-Tyr) peptide (5-500 μM or 0.01 mg/ml) in kinase buffer and kinase buffer (50 μM; 5 μL) are mixed in an eppendorf on ice. A Mg/ATP mix (10 μL; 67.5 (or 33.75) mM MgCl2, 450 (or 225) μM ATP and 1 μCi/μl [γ-^32P]-ATP (3000 Ci/mmol)) is added and the reaction is incubated at about 30° C. for about 10 minutes. The reaction mixture is spotted (20 μL) onto a 2 cm×2 cm P81 (phosphocellulose, for positively charged peptide substrates) or Whatman No. 1 (for Poly (Glu4-Tyr) peptide substrate) paper square. The assay squares are washed 4 times, for 5 minutes each, with 0.75% phosphoric acid and washed once with acetone for 5 minutes. The assay squares are transferred to a scintillation vial, 5 ml scintillation cocktail are added and ^32P incorporation (cpm) to the peptide substrate is quantified with a Beckman scintillation counter. Percentage inhibition is calculated for each reaction.

The target of a further experiment is T3, Bmx(h) (Homo sapiens, UniProt P51813).
T3 construct: purchased Upstate
Described as above. It counts as biochemical. The conditions noted are these: read-out: percentage inhibition Bmx(h). Here is the method: as §1

For the next experiment, the target named is T4, FGFR3(h) (Homo sapiens, UniProt P22607).
T4 construct: purchased Upstate
The description is as above. It counts as biochemical. The conditions noted are these: read-out: percentage inhibition FGFR3(h). Here is the method:
as §1

Another experiment deals with T5, Fes(h) (Homo sapiens, UniProt P07332).
T5 construct: purchased Upstate
T5 sequence (P07332 whole entry): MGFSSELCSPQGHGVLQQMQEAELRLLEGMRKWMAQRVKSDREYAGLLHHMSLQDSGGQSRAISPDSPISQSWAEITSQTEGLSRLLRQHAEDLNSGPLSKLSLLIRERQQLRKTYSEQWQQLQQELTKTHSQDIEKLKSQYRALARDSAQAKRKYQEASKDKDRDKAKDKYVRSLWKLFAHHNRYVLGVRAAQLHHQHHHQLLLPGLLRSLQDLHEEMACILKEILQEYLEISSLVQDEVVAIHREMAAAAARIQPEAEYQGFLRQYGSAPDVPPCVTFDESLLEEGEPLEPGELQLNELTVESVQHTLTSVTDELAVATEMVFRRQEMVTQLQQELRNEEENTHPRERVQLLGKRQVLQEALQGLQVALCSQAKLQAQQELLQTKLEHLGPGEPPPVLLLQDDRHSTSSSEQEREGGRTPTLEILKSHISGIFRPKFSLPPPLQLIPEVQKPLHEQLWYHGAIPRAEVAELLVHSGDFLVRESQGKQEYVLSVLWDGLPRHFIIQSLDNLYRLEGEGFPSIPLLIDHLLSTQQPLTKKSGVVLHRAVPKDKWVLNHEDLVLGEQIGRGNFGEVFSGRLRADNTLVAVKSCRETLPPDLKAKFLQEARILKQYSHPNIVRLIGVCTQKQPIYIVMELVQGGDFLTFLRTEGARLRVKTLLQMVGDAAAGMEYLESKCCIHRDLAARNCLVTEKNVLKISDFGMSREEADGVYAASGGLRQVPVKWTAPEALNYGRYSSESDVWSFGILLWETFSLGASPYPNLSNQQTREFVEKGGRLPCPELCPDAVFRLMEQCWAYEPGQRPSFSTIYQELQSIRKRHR
The description is as above. It counts as biochemical. The conditions noted are these: read-out: percentage inhibition Fes(h). Here is the method:
as §1

The next experiment concerns the target T6, IKKα(h) (Homo sapiens, UniProt O15111).
T6 construct: purchased Upstate
The description is as above. It counts as biochemical. The conditions noted are these: read-out: percentage inhibition IKKα(h). Here is the method: as §1

For another experiment, the target named is T7, IKKβ(h) (Homo sapiens, UniProt O14920).
T7 construct: purchased Upstate
T7 sequence (O14920 whole entry): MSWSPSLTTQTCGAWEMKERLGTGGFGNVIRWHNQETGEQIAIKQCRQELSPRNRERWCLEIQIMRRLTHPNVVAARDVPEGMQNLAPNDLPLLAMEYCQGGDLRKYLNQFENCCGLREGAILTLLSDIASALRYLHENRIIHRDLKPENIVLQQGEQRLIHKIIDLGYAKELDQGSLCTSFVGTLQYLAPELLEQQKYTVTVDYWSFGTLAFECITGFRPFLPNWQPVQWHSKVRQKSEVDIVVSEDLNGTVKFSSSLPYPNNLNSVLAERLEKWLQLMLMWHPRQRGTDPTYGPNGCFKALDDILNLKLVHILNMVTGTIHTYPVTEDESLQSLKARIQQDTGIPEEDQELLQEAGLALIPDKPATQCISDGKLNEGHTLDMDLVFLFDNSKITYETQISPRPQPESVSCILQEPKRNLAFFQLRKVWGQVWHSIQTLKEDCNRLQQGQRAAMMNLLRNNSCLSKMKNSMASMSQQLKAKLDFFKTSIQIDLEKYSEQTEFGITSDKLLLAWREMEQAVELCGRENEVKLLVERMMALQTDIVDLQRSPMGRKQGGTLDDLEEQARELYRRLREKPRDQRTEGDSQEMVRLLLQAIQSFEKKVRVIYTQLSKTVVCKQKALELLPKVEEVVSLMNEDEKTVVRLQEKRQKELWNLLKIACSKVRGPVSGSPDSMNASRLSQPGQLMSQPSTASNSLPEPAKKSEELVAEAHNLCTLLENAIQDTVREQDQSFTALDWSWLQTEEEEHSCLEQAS
Described as above. The conditions noted are these: read-out: percentage inhibition IKKβ(h). It counts as biochemical. Here is the method: as §1

Another experiment has as its target T8, JNK1α1(h) (Homo sapiens, UniProt P45983).
T8 construct: purchased Upstate
Described as above. The experiment is classed as biochemical. The conditions noted are these: read-out: percentage inhibition JNK1α1(h). Here is the method:
as §1

For another experiment, the target named is T9, MKK4(m) (Mus musculus, UniProt P47809).
T9 construct: purchased Upstate
The experiment is described as above. It counts as biochemical. The conditions noted are these: read-out: percentage inhibition MKK4(m). Here is the method: as §1

For another experiment, the target named is T10, PDGFRα(h) (Homo sapiens, UniProt P16234).
T10 construct: purchased Upstate
The experiment is described as above. The experiment is classed as biochemical. The conditions noted are these: read-out: percentage inhibition PDGFRα(h). Here is the method: as §1

The target of another experiment is T11, PKCα(h) (Homo sapiens, UniProt P17252).
T11 construct: purchased Upstate
Described as above. The experiment is classed as biochemical. The conditions noted are these: read-out: percentage inhibition PKCα(h). Here is the method:
as §1

For the next experiment, the target named is T12, PKD2(h) (Homo sapiens, UniProt Q9BZL6).
T12 construct: purchased Upstate
T12 sequence (Q9BZL6 whole entry): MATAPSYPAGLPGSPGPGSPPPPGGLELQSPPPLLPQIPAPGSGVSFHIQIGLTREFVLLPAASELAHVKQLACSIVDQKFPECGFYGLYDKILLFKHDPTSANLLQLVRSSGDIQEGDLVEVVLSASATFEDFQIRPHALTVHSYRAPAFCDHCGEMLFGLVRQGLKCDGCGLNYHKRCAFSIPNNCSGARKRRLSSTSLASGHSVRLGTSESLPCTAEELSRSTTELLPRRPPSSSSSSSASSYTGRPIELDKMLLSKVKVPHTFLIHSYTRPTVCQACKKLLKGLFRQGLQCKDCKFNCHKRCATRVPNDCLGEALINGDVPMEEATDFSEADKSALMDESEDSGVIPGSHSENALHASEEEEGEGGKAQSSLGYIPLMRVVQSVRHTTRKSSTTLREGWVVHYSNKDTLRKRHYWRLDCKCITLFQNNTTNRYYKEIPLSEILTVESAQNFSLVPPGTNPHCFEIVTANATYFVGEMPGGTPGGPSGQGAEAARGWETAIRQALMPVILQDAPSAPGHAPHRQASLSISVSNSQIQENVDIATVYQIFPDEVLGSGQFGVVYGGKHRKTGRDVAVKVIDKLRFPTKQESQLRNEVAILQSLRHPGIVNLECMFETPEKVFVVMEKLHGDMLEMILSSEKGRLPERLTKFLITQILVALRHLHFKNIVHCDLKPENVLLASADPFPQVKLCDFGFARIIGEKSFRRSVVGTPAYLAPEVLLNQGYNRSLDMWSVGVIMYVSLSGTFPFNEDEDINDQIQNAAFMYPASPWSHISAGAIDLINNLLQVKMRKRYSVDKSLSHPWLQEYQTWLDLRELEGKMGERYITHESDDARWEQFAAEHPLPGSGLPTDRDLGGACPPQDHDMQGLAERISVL
The experiment is described as above. The experiment is classed as biochemical. The conditions noted are these: read-out: percentage inhibition PKD2(h). On the procedure:
as §1

In the next experiment the target is T13, ROCK-II(h) (Homo sapiens, UniProt O75116).
T13 construct: purchased Upstate
The description is as above. The conditions noted are these: read-out: percentage inhibition ROCK-II(h). It counts as biochemical. Here is the method: as §1

Another experiment has as its target T14, SAPK2a(h) (Homo sapiens, UniProt Q16539).
T14 construct: purchased Upstate
The experiment is described as above. It counts as biochemical. The conditions noted are these: read-out: percentage inhibition SAPK2a(h). Here is the method:
as §1

The target of another experiment is T15, SAPK3(h) (Homo sapiens, UniProt P53778).
T15 construct: purchased Upstate
The experiment is described as above. The experiment is classed as biochemical. The conditions noted are these: read-out: percentage inhibition SAPK3(h). Here is the method:
as §1

In a further experiment the target is T16, SAPK4(h) (Homo sapiens, UniProt O15264).
T16 construct: purchased Upstate
Described as above. The experiment is classed as biochemical. The conditions noted are these: read-out: percentage inhibition SAPK4(h). Here is the method:
as §1

A further experiment deals with T17, SGK(h) (Homo sapiens, UniProt O00141).
T17 construct: purchased Upstate
T17 sequence (O00141 whole entry): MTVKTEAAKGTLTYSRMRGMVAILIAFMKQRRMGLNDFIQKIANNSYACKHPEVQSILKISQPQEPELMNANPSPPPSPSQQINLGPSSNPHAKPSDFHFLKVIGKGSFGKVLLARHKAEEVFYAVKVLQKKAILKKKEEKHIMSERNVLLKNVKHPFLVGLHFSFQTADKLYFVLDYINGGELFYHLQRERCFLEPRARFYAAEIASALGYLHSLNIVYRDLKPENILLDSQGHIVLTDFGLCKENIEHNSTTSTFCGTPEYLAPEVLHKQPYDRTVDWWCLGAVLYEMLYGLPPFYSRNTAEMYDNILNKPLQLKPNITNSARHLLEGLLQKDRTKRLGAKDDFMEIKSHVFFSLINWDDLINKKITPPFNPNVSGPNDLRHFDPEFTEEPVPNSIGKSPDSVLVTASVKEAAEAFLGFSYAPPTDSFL
The experiment is described as above. The conditions noted are these: read-out: percentage inhibition SGK(h). It counts as biochemical. Here is the method:
as §1

In a further experiment the target is T18, Syk(h) (Homo sapiens, UniProt P43405).
T18 construct: purchased Upstate
Described as above. The conditions noted are these: read-out: percentage inhibition Syk(h). It counts as biochemical. Here is the method:
as §1

In another experiment the target is T19, Tie2(h) (Homo sapiens, UniProt Q02763).
T19 construct: purchased Upstate
The description is as above. The conditions noted are these: read-out: percentage inhibition Tie2(h). It counts as biochemical. On the procedure: as §1

Another experiment concerns the target T20, TrkB(h) (Homo sapiens, UniProt Q16620).
T20 construct: purchased Upstate
The experiment is described as above. It counts as biochemical. The conditions noted are these: read-out: percentage inhibition TrkB(h). Here is the method: as §1

The next experiment deals with T21, c-RAF(h) (Homo sapiens, UniProt P04049).
T21 construct: purchased Upstate
T21 sequence (P04049 whole entry): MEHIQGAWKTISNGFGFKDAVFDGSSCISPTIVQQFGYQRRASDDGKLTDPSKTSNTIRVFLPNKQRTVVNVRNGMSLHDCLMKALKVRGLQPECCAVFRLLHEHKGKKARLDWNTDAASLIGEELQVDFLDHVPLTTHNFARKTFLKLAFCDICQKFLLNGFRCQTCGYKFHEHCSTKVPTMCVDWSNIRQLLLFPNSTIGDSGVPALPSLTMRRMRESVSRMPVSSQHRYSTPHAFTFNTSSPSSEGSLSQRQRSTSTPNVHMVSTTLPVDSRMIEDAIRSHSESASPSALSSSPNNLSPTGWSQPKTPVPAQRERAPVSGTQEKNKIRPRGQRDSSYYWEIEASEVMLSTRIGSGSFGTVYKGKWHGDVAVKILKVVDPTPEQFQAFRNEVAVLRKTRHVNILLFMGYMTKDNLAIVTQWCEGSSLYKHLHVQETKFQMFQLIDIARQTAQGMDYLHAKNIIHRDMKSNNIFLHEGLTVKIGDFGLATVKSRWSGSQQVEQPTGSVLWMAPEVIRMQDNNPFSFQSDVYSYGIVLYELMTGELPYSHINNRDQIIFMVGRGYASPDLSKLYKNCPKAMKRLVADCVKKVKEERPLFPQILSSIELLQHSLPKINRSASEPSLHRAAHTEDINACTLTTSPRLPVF
The description is as above. The conditions noted are these: read-out: percentage inhibition c-RAF(h). It counts as biochemical. Here is the method:
as §1

The target of a further experiment is T22, p70S6K(h) (Homo sapiens, UniProt P23443).
T22 construct: purchased Upstate
T22 sequence (P23443 whole entry): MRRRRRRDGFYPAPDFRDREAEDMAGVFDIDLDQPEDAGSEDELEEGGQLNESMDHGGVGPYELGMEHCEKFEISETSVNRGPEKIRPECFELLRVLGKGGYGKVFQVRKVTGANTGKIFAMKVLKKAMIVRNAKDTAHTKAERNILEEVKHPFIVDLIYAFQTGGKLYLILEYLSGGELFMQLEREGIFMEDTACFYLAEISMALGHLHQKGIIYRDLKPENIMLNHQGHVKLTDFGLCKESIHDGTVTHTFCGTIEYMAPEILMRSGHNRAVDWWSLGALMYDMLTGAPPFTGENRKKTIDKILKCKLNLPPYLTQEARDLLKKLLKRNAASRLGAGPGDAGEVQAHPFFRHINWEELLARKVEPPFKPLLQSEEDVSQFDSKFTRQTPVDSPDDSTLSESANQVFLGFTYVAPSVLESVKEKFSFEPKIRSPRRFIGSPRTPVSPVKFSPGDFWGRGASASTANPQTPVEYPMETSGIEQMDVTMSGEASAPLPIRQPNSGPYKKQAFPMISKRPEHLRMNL
The experiment is described as above. The conditions noted are these: read-out: percentage inhibition p70S6K(h). The experiment is classed as biochemical. On the procedure: as §1

The structures appear in SMILES notation.

T8 sequence (P45983 1-384 isoform P45983-2): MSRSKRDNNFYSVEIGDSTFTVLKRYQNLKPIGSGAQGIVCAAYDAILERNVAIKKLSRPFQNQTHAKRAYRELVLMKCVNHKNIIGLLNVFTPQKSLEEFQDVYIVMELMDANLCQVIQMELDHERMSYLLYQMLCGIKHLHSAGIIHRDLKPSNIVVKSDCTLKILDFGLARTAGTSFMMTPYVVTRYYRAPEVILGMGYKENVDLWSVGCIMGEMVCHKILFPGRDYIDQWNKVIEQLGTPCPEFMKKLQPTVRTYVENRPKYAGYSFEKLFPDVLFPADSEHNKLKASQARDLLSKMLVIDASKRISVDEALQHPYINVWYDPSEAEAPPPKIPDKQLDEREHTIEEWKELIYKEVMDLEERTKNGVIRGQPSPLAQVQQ
T1 sequence (P00519 229-512 F317L limits assumed): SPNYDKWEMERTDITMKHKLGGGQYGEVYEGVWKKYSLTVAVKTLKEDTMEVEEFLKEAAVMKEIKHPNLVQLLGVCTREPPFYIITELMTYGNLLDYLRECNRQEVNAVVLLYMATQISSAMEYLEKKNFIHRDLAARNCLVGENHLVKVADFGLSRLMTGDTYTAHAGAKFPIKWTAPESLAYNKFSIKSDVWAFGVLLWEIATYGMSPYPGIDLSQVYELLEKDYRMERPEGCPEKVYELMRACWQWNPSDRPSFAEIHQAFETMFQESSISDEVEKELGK

A word on the IC50: it is the concentration needed to halve the response being measured. A higher IC50 goes with a need for much substance. Usually inhibition stands for the percentage by which the read-out fell short of the control. In [1], `CCN1CCN(Cc2ccc(NC(=O)c3ccc(C)c(NC(=O)N(C)c4ncnc5[nH]ccc45)c3)cc2C(F)(F)F)CC1` [Example 4, N-[4-(4-Ethyl-piperazin-1-ylmethyl)-3-trifluoromethyl-phenyl]-4-methyl-3-[3-methyl-3-(7H-pyrrolo[2,3-d]pyrimidin-4-yl)-ureido]-benzamide] came in with an IC50 of under 5 nM. Also, the inhibition at 10 µM at BTK(h) worked out at 99%; at Bmx(h), 100%; on FGFR3(h), 98%; on Fes(h), 97%; on IKKα(h) it was 98%; on IKKβ(h), 96%. Moreover, the inhibition at 10 µM was found to be 81% on JNK1α1(h); 87% at MKK4(m); 93% at PDGFRα(h); 61% at PKCα(h); 94% on PKD2(h); 78% on ROCK-II(h). The inhibition at 10 µM is 92% on SAPK2a(h); 92% at SAPK3(h); 82% on SAPK4(h); 81% on SGK(h); 63% at Syk(h); 98% on Tie2(h). For the same compound, the results for the inhibition at 10 µM at TrkB(h), at c-RAF(h) and at p70S6K(h) were 99%, 97% and 94%, respectively.
